Target: T1, NostocER1 (Nostoc sp. PCC 7120 = FACHB-418, UniProt A0ACD6B956)
T1 construct: gene all1865; full-length gene, pET28a(+) based vector (NcoI/BamHI), co-expressed with M. vaccae FDH in E. coli BL21(DE3)
Assay: whole-cell biotransformation, chiral GC-FID
Format: cell-based
Conditions: E. coli BL21(DE3) whole cells with FDH; 300 mM (R)-carvone, 450 mM formate, 0.1 mM NAD+, XAD4 resin, pH 7.0, 25 °C; product (2R,5R)-dihydrocarvone

T1 sequence (A0ACD6B956 38-402): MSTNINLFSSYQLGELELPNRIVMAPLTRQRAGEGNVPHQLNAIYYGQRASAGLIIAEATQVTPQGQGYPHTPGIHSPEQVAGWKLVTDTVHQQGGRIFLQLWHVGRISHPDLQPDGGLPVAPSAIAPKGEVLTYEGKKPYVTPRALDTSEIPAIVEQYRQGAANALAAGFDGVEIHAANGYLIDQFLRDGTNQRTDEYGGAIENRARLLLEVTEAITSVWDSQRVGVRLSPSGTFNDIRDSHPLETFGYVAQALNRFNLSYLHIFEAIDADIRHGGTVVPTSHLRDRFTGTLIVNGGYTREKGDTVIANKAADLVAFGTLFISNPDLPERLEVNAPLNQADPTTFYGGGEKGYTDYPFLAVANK

C=C(C)[C@@H]1CC=C(C)C(=O)C1 [compound 1, (R)-carvone]
whole-cell biotransformation, chiral GC-FID: E. coli cells with the NostocER1 wild type possessed the slowest of all determined product formation rates

Reference: publication PMC6681004, “Asymmetric Whole-Cell Bio-Reductions of (R)-Carvone Using Optimized Ene Reductases” (Molecules, 2019)
